Laboratory results reported in ChEMBL document CHEMBL3616390, “Design and synthesis of N-[6-(Substituted Aminoethylideneamino)-2-Hydroxyindan-1-yl]arylamides as selective and potent muscarinic M₁ agonists” (Bioorg Med Chem Lett, 2015).
Active and inactive are the calls of the source. No cut-off for these calls is given here.

Legend:
[1] = Drug degradation in rat plasma assessed as formamidine hydrolysis after 4 hrs; assay type: ADME, cell-free; details: read-out: Drug degradation
[2] = target: T1, Muscarinic acetylcholine receptor M2 (Homo sapiens) (UniProt P08172); assay: Agonist activity at human muscarinic M2 receptor expressed in CHO cells at 280 nM after 30 mins by GTPgamma35S binding assay relative to control; assay type: functional, cell-based
T1 sequence (whole entry): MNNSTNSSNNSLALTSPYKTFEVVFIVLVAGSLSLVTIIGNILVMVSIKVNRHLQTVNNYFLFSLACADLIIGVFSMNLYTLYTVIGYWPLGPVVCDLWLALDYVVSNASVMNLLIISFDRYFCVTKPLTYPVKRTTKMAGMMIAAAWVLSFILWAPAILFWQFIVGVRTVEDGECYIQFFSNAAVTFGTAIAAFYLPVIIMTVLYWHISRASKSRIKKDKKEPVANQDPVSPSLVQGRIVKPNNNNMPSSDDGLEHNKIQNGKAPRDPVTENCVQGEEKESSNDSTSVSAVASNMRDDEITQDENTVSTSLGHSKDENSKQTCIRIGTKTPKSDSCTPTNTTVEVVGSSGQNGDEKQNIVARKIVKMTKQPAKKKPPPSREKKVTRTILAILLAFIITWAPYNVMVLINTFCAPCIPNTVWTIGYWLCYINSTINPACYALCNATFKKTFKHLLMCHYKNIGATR

[3] = Partition coefficient, log D of the compound; assay type: physicochemical; details: octanol/water
[4] = target: T2, Muscarinic acetylcholine receptor M1 (Homo sapiens, UniProt P11229); assay: Agonist activity at human muscarinic M1 receptor expressed in CHO cells after 30 mins by GTPgamma35S binding assay; assay type: functional, cell-based
T2 sequence (P11229 whole entry): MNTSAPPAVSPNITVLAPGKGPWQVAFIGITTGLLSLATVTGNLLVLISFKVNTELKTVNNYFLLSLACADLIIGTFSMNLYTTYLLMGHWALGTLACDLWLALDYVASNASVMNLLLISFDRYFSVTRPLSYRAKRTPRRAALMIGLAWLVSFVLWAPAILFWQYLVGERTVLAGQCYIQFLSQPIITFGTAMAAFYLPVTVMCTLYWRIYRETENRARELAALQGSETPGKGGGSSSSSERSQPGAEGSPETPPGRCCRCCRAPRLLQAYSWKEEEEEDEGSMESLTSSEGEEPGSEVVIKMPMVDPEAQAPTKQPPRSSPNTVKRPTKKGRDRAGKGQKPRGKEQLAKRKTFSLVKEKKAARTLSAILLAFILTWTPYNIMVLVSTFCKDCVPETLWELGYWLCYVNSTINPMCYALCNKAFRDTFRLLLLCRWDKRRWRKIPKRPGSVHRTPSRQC

[5] = target: T3, Muscarinic acetylcholine receptor M4 (Homo sapiens, UniProt P08173); assay: Agonist activity at human muscarinic M4 receptor expressed in CHO cells after 30 mins by GTPgamma35S binding assay; assay type: functional, cell-based
T3 sequence (P08173 whole entry): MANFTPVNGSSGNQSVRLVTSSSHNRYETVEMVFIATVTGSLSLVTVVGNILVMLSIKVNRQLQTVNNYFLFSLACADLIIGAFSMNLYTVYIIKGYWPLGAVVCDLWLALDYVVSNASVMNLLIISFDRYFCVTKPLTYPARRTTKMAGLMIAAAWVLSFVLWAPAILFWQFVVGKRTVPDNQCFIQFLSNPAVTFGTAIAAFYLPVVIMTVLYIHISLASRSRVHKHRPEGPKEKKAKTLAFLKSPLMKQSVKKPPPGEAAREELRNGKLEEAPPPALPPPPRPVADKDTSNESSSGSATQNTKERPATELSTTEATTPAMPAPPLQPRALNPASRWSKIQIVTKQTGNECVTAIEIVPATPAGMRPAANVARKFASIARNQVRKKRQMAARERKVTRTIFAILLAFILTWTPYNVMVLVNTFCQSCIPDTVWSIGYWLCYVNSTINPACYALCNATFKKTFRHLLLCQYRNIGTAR

[6] = Dissociation constant, pKa of the compound; assay type: physicochemical
[7] = target: T1, Muscarinic acetylcholine receptor M2 (Homo sapiens); assay: Agonist activity at human muscarinic M2 receptor expressed in CHO cells after 30 mins by GTPgamma35S binding assay relative to acetylcholine; assay type: functional, cell-based
[8] = tested on: Plasma; assay: Metabolic stability in rat plasma; assay type: ADME, cell-free
[9] = target: T4, Muscarinic acetylcholine receptor M2 (Homo sapiens, UniProt P08172); assay: Agonist activity at human muscarinic M2 receptor expressed in CHO cells after 30 mins by GTPgamma35S binding assay; assay type: functional, cell-based
T4 sequence (P08172 whole entry): T1 sequence (whole entry)

[10] = Oral bioavailability in rat; assay type: ADME, organism-based; details: in vivo
[11] = Drug uptake in rat whole brain at 10 mg/kg, po measured at 3 hrs; assay type: ADME, organism-based; details: read-out: Drug uptake
[12] = tested on: Rattus norvegicus; assay: Cognitive enhancement activity in rat at 30 mg/kg, po by spatial learning test; assay type: functional, organism-based
[13] = tested on: Rattus norvegicus; assay: AUC (0 to 8 hrs) in rat at 10 mg/kg, po; assay type: ADME, organism-based; parameters: time < 8 hr, dose 10 mg/kg, route oral; details: in vivo
[14] = target: T5, Muscarinic acetylcholine receptor M4 (Homo sapiens) (UniProt P08173); assay: Agonist activity at human muscarinic M4 receptor expressed in CHO cells after 30 mins by GTPgamma35S binding assay relative to acetylcholine; assay type: functional, cell-based
T5 sequence (whole entry): T3 sequence (P08173 whole entry)

[15] = target: T1, Muscarinic acetylcholine receptor M2 (Homo sapiens); assay: Agonist activity at human muscarinic M2 receptor expressed in CHO cells after 30 mins by GTPgamma35S binding assay relative to oxotremorine-M; assay type: functional, cell-based
[16] = target: T5, Muscarinic acetylcholine receptor M4 (Homo sapiens); assay: Agonist activity at human muscarinic M4 receptor expressed in CHO cells after 30 mins by GTPgamma35S binding assay relative to oxotremorine-M; assay type: functional, cell-based
[17] = target: T6, Muscarinic acetylcholine receptor M5 (Homo sapiens, UniProt P08912); assay: Agonist activity at human muscarinic M5 receptor expressed in CHO cells after 30 mins by GTPgamma35S binding assay; assay type: functional, cell-based; details: cho
T6 sequence (P08912 whole entry): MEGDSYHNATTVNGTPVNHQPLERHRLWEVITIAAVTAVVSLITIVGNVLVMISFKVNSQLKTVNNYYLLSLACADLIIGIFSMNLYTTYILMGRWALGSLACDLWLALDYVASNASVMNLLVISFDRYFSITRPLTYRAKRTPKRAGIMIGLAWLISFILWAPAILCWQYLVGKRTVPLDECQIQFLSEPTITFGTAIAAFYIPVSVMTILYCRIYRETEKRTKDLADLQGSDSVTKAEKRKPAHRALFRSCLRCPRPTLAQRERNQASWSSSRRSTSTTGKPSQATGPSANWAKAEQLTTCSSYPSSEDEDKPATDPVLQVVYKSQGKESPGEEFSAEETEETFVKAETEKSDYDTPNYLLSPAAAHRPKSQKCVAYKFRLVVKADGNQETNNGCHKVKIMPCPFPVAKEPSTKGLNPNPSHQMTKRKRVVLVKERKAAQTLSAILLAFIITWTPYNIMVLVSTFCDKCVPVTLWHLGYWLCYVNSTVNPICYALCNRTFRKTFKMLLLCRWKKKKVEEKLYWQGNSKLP

[18] = target: T7, Muscarinic acetylcholine receptor M1 (Homo sapiens) (UniProt P11229); assay: Agonist activity at human muscarinic M1 receptor expressed in CHO cells after 30 mins by GTPgamma35S binding assay relative to oxotremorine-M; assay type: functional, cell-based
T7 sequence (whole entry): T2 sequence (P11229 whole entry)

[19] = target: Muscarinic acetylcholine receptor M3 (Homo sapiens, UniProt P20309); assay: Agonist activity at human muscarinic M3 receptor expressed in CHO cells after 30 mins by GTPgamma35S binding assay; assay type: functional, cell-based; details: cho
Muscarinic acetylcholine receptor M3, sequence (P20309 whole entry): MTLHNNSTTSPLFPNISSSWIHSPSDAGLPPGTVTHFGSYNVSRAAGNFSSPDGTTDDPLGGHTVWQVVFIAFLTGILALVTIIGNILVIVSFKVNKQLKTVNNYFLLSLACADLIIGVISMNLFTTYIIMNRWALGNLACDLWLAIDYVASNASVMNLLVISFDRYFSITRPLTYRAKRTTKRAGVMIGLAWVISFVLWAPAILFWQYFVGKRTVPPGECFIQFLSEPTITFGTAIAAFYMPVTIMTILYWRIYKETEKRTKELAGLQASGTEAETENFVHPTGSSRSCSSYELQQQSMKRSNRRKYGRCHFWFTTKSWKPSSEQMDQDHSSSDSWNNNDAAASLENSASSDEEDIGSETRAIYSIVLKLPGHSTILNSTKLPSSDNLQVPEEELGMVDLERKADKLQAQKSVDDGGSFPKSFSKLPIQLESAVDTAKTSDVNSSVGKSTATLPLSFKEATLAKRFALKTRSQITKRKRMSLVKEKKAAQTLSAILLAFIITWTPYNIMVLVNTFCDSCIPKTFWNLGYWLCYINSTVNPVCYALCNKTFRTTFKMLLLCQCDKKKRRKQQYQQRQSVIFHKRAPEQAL

[20] = tested on: Rattus norvegicus; assay: AUC (0 to 6 hrs) in rat at 10 mg/kg, po; assay type: ADME, organism-based; parameters: time < 6 hr, dose 10 mg/kg, route oral; details: in vivo
[21] = tested on: Rattus norvegicus; assay: Cognitive enhancement activity in po dosed rat by 8-arm radial maze test; assay type: functional; details: read-out: MED
[22] = Oral bioavailability in monkey; assay type: ADME, organism-based, Macaca mulatta; details: rhesus monkey, in vivo

Row | Compound | logD [3] | EC50 [4] [µM] | EC50 [5] [µM] | pKa [6] | EC50 [9] [µM] | concentration at 3 h [11] [ng/g] | AUC [13] [ng·h/g] | Efficacy [15] [%] | Efficacy [16] [%] | EC50 [17] | Efficacy [18] [%] | EC50 [19] | other results
1 | O=C(N[C@@H]1c2cc(/N=C/N3CCCC3)ccc2C[C@H]1O)c1ccc(Br)cc1 | – | – | – | – | – | – | – | – | – | – | – | – | metabolised at 4 h [1]: 50%; Emax [2]: 80%
2 | CN1CCCC/C1=N\c1ccc2c(c1)[C@@H](NC(=O)c1ccc(Br)cc1)[C@H](O)C2 | 1.04 | 0.08 | 0.113 | 9.9 | 0.024 | < 40 | 506 | – | – | – | – | – | Efficacy [7]: 28%; Stability [8]: Stable; bioavailability [10]: 68%; Activity [12]: Active; Efficacy [14]: 34%
3 | C/C(=N\c1ccc2c(c1)[C@@H](NC(=O)c1ccc(Br)cc1)[C@H](O)C2)NCc1ccc(F)cc1 | 2.01 | 0.0209 | 0.115 | 8.49 | 0.0718 | 64 | 634 | 31.8 | 33.5 | Not Active | 89.9 | Not Active | –
4 | C/C(=N\c1ccc2c(c1)[C@@H](NC(=O)c1ccc(Br)cc1)[C@H](O)C2)N(C)c1ccc(F)cc1 | – | 0.118 | – | – | – | 891 | 4681 | < 20 | < 20 | Not Active | 31.5 | Not Active | –
5 | C/C(=N\c1ccc2c(c1)[C@@H](NC(=O)c1ccc(-c3ccccc3)cc1)[C@H](O)C2)N(C)Cc1ccc(F)cc1 | 2.3 | 0.0228 | 1.06 | 8.3 | 0.693 | 141 | – | 34.6 | 29.7 | Not Active | 110 | Not Active | AUC [20]: 533 ng·h/g; minimal effective dose [21]: 1 mg/kg; bioavailability [10]: 32%; bioavailability [22]: 46%
6 | C/C(=N\c1ccc2c(c1)[C@@H](NC(=O)c1ccc(Br)cc1)[C@H](O)C2)Nc1ccc(F)cc1 | – | 0.051 | 1.11 | 8.2 | 0.749 | 147 | 1369 | 25.2 | 23.1 | Not Active | 79.4 | Not Active | –
7 | C/C(=N\c1ccc2c(c1)[C@@H](NC(=O)c1ccc(Br)cc1)[C@H](O)C2)N1CCCCC1 | – | – | – | – | – | – | – | – | – | – | – | – | metabolised at 4 h [1]: 5%
